Data as given in patent US5126337A, “Thiazetoquinoline-3-carboxylic acid derivative and a pharmaceutical composition comprising the same” (priority 1989, dated 1992).
In brackets after ≈: the same amount, converted by molar mass. Counter-ions that a name gives are not always drawn. Like-named read-outs stand apart in the source and are kept apart here.

Assays:
[1] = tested on: Klebsiella pneumoniae HNR 828; experiment: Antibacterial spectrum, MIC by twofold agar dilution method; type: cell-based; settings: HNR828, 10^6 cfu/ml, clinically isolated strain, Gram -, 18 hrs at 37° C
Description: (§1) Overnight cultures in Mueller-Hinton broth were suspended by buffered saline gelatin. One loopful of the bacterial suspension (10^6 or 10^8 colony-forming units/ml) was incubated onto the plates containing test compounds. The plates were incubated for 18 hrs at 37° C. The MIC was defined by the lowest concentration of the drug that inhibited visible growth of bacteria.

[2] = tested on: Acinetobacter calcoaceticus HNR 916; experiment: as above; type: cell-based; settings: HNR916, 10^6 cfu/ml, clinically isolated strain, Gram -, 18 hrs at 37° C
Description: as §1

[3] = tested on: Pseudomonas aeruginosa HNR 1489; experiment: as above; type: cell-based; settings: HNR1489, 10^6 cfu/ml, clinically isolated strain, Gram -, 18 hrs at 37° C
Description: as §1

[4] = tested on: Serratia marcescens HNR 1544; experiment: as above; type: cell-based; settings: HNR1544, 10^6 cfu/ml, clinically isolated strain, Gram -, 18 hrs at 37° C
Description: as §1

[5] = tested on: Klebsiella pneumoniae HNR 869; experiment: as above; type: cell-based; settings: HNR869, 10^6 cfu/ml, clinically isolated strain, Gram -, 18 hrs at 37° C
Description: as §1

[6] = tested on: Escherichia coli NIHJ JC-2; experiment: as above; type: cell-based; settings: NIHJJC2, 10^6 cfu/ml, standard laboratory strain, Gram -, 18 hrs at 37° C
Description: as §1

[7] = tested on: Enterococcus faecalis HPC 975; experiment: as above; type: cell-based; settings: HPC975, 10^6 cfu/ml, clinically isolated strain, Gram +, 18 hrs at 37° C
Description: as §1

[8] = tested on: Staphylococcuss aureus HPC 527; experiment: as above; type: cell-based; settings: 10^6 cfu/ml; clinically isolated strain, Gram +; 18 hrs at 37° C
Description: as §1

[9] = tested on: Enterobacter cloacae HNR 1939; experiment: as above; type: cell-based; settings: HNR1939, 10^6 cfu/ml, clinically isolated strain, Gram -, 18 hrs at 37° C
Description: as §1

[10] = tested on: Enterobacter cloacae 963; experiment: as above; type: cell-based; settings: 10^6 cfu/ml, standard laboratory strain, Gram -, 18 hrs at 37° C
Description: as §1

[11] = tested on: Acinetobacter calcoaceticus HNR 904; experiment: as above; type: cell-based; settings: HNR904, 10^6 cfu/ml, clinically isolated strain, Gram -, 18 hrs at 37° C
Description: as §1

[12] = tested on: Staphylococuss aureus FDA 209PJC-1; experiment: as above; type: cell-based; settings: 10^6 cfu/ml; standard laboratory strain, Gram +; 18 hrs at 37° C
Description: as §1

[13] = tested on: Klebsiella pneumoniae HNR 858; experiment: as above; type: cell-based; settings: HNR858, 10^6 cfu/ml, clinically isolated strain, Gram -, 18 hrs at 37° C
Description: as §1

[14] = tested on: Pseudomonas aeruginosa HNR 1472; experiment: as above; type: cell-based; settings: HNR1472, 10^6 cfu/ml, clinically isolated strain, Gram -, 18 hrs at 37° C
Description: as §1

[15] = tested on: Pseudomonas aeruginosa HNR 1537; experiment: as above; type: cell-based; settings: HNR1537, 10^6 cfu/ml, clinically isolated strain, Gram -, 18 hrs at 37° C
Description: as §1

[16] = tested on: Enterococcus faecalis HPC 948; experiment: as above; type: cell-based; settings: HPC948, 10^6 cfu/ml, clinically isolated strain, Gram +, 18 hrs at 37° C
Description: as §1

[17] = tested on: Serratia marcescens HNR 1767; experiment: as above; type: cell-based; settings: HNR1767, 10^6 cfu/ml, clinically isolated strain, Gram -, 18 hrs at 37° C
Description: as §1

[18] = tested on: Pseudomonas aeruginosa IFO 3445; experiment: as above; type: cell-based; settings: IFO3445, 10^6 cfu/ml, standard laboratory strain, Gram -, 18 hrs at 37° C
Description: as §1

[19] = tested on: Staphylococcuss aureus HPC 292; experiment: as above; type: cell-based; settings: 10^6 cfu/ml; clinically isolated strain, Gram +; 18 hrs at 37° C; read-out: MIC
Description: as §1

[20] = tested on: Serratia marcescens IAM 1184; experiment: as above; type: cell-based; settings: IAM1184, 10^6 cfu/ml, standard laboratory strain, Gram -, 18 hrs at 37° C
Description: as §1

[21] = tested on: Serratia marcescens HNR 1792; experiment: as above; type: cell-based; settings: HNR1792, 10^6 cfu/ml, clinically isolated strain, Gram -, 18 hrs at 37° C
Description: as §1

[22] = tested on: Enterobacter cloacae HNR 1946; experiment: as above; type: cell-based; settings: HNR1946, 10^6 cfu/ml, clinically isolated strain, Gram -, 18 hrs at 37° C
Description: as §1

[23] = tested on: Acinetobacter calcoaceticus HNR 939; experiment: as above; type: cell-based; settings: HNR939, 10^6 cfu/ml, clinically isolated strain, Gram -, 18 hrs at 37° C
Description: as §1

[24] = tested on: Enterococcus faecalis HPC 984; experiment: as above; type: cell-based; settings: HPC984, 10^6 cfu/ml, clinically isolated strain, Gram +, 18 hrs at 37° C
Description: as §1

[25] = tested on: Male mice of ddY strain; experiment: Convulsion inducing activity in combination with fenbufen; settings: 30 min after fenbufen 100 mg/kg orally
Description: Male mice of ddY strain, 5 weeks old, were used. Fenbufen suspended in 0.5% carboxymethyl cellulose was administered orally at a dose of 100 mg/kg. After thirty minutes, test compounds suspended in 0.5% carboxymethyl cellulose were injected intraperitoneally (i.p.) at a dose of 100 mg/kg or 300 mg/kg.

[26] = tested on: Klebsiella pneumoniae PCI-602; experiment: Antibacterial spectrum, MIC by twofold agar dilution method; type: cell-based
Description: as §1, with “Minimum inhibitory concentrations (MIC) of test compounds were determined by the twofold agar dilution method (Chemotherapy, 29(1), 76(1981)). Overnight” for “Overnight”

[27] = tested on: Male mice of ddY strain; experiment: Acute toxicity (i.v.); type: in vivo; settings: 270 mg/kg (i.v.)
Description: Male mice of ddY strain, 4 weeks old, were used. Test compounds were solved in 0.1N--NaOH solution and neutralized with 0.1N--HCl solution. Each compound was administered intravenously (i.v.) at a dose of 270 mg/kg. […]

[28] = tested on: Staphylococcuss aureus HPC 308; experiment: Antibacterial spectrum, MIC by twofold agar dilution method; type: cell-based; settings: 10^6 cfu/ml; clinically isolated strain, Gram +; 18 hrs at 37° C
Description: as §1

[29] = tested on: Enterobacter cloacae HNR 1941; experiment: as above; type: cell-based; settings: HNR1941, 10^6 cfu/ml, clinically isolated strain, Gram -, 18 hrs at 37° C
Description: as §1

[30] = PCI602, 10^6 cfu/ml, standard laboratory strain, Gram -, 18 hrs at 37° C, read-out: MIC

SMILES	MIC [1] [µg/mL]	MIC [2] [µg/mL]	MIC [3] [µg/mL]	MIC [4] [µg/mL]	MIC [5] [µg/mL]	MIC [6] [µg/mL]	MIC [7] [µg/mL]	MIC [8] [µg/mL]	MIC [9] [µg/mL]	MIC [10] [µg/mL]	MIC [12] [µg/mL]	MIC [13] [µg/mL]	MIC [14] [µg/mL]	MIC [15] [µg/mL]	MIC [16] [µg/mL]	MIC [17] [µg/mL]	MIC [18] [µg/mL]	MIC [19] [µg/mL]	MIC [20] [µg/mL]	MIC [21] [µg/mL]	further results
CC1Sc2c(C(=O)O)c(=O)c3cc(F)c(N4CC[C@H](N)C4)c(F)c3n21 (single isomer, unassigned) [Example 27]	1.56 (≈ 4.25 µM)	0.1 (≈ 0.272 µM)	0.1 (≈ 0.272 µM)	0.05 (≈ 0.136 µM)	0.78 (≈ 2.12 µM)	0.025 (≈ 0.068 µM)	6.25 (≈ 17 µM)	0.05 (≈ 0.136 µM)	0.2 (≈ 0.544 µM)	0.05 (≈ 0.136 µM)	0.025 (≈ 0.068 µM)	0.2 (≈ 0.544 µM)	3.13 (≈ 8.52 µM)	6.25 (≈ 17 µM)	0.78 (≈ 2.12 µM)	6.25 (≈ 17 µM)	0.1 (≈ 0.272 µM)	6.25 (≈ 17 µM)	0.05 (≈ 0.136 µM)	1.56 (≈ 4.25 µM)	MIC [11]: 25 µg/mL (≈ 68 µM); MIC [22]: 0.2 µg/mL (≈ 0.544 µM); MIC [23]: 1.56 µg/mL (≈ 4.25 µM); MIC [24]: 0.2 µg/mL (≈ 0.544 µM); Number of convulsion induced/Number of animals ([25]; 100 mg/kg (i.p.)): 0/6; Number of convulsion induced/Number of animals ([25]; 300 mg/kg (i.p.)): 0/6; MIC [26, 30]: ≤ 0.003 µg/mL; Number of death/Number of animals [27]: 4/10
CC1Sc2c(C(=O)O)c(=O)c3cc(F)c(N4CC[C@H](N)C4)c(Cl)c3n21 (single isomer, unassigned) [Example 29]	1.56 (≈ 4.06 µM)	0.1 (≈ 0.261 µM)	0.2 (≈ 0.521 µM)	0.05 (≈ 0.13 µM)	0.39 (≈ 1.02 µM)	0.025 (≈ 0.0651 µM)	6.25 (≈ 16.3 µM)	0.05 (≈ 0.13 µM)	0.2 (≈ 0.521 µM)	0.025 (≈ 0.0651 µM)	0.05 (≈ 0.13 µM)	0.2 (≈ 0.521 µM)	3.13 (≈ 8.15 µM)	3.13 (≈ 8.15 µM)	0.78 (≈ 2.03 µM)	3.13 (≈ 8.15 µM)	0.1 (≈ 0.261 µM)	6.25 (≈ 16.3 µM)	0.1 (≈ 0.261 µM)	0.78 (≈ 2.03 µM)	MIC [28]: 0.78 µg/mL (≈ 2.03 µM); MIC [22]: 0.2 µg/mL (≈ 0.521 µM); MIC [23]: 1.56 µg/mL (≈ 4.06 µM); MIC [29]: 1.56 µg/mL (≈ 4.06 µM); MIC [24]: 0.2 µg/mL (≈ 0.521 µM); Number of convulsion induced/Number of animals ([25]; 100 mg/kg (i.p.)): 0/6; Number of convulsion induced/Number of animals ([25]; 300 mg/kg (i.p.)): 0/6; Number of death/Number of animals [27]: 3/10
CC1Sc2c(C(=O)O)c(=O)c3cc(F)c(N4CCC(N(C)C)C4)c(Cl)c3n21 (stereo not drawn) [Example 39, 8-Chloro-7-(3-dimethylamino-1-pyrrolidinyl)-6-fluoro-1-methyl-4-oxo-1H, 4H-[1,3]thiazeto[3,2-a]quinoline-3-carboxylic acid]	12.5 (≈ 30.3 µM)	0.1 (≈ 0.243 µM)	1.56 (≈ 3.79 µM)	0.2 (≈ 0.486 µM)	3.13 (≈ 7.6 µM)	0.1 (≈ 0.243 µM)	12.5 (≈ 30.3 µM)	0.2 (≈ 0.486 µM)	0.78 (≈ 1.89 µM)	0.39 (≈ 0.947 µM)	0.2 (≈ 0.486 µM)	0.78 (≈ 1.89 µM)	25 (≈ 60.7 µM)	50 (≈ 121 µM)	1.56 (≈ 3.79 µM)	12.5 (≈ 30.3 µM)	1.56 (≈ 3.79 µM)	12.5 (≈ 30.3 µM)	0.39 (≈ 0.947 µM)	12.5 (≈ 30.3 µM)	MIC [28]: 1.56 µg/mL (≈ 3.79 µM); MIC [11]: 6.25 µg/mL (≈ 15.2 µM); MIC [22]: 0.78 µg/mL (≈ 1.89 µM); MIC [23]: 1.56 µg/mL (≈ 3.79 µM); MIC [29]: 12.5 µg/mL (≈ 30.3 µM); MIC [24]: 0.39 µg/mL (≈ 0.947 µM); MIC [26, 30]: 0.025 µg/mL (≈ 0.0607 µM)
O=C(O)c1cn(C2CC2)c2cc(N3CCNCC3)c(F)cc2c1=O [Reference Drug A, ciprofloxacin hydrochloride, reference compound]																					Number of convulsion induced/Number of animals ([25]; 100 mg/kg (i.p.)): 4/6; Number of convulsion induced/Number of animals ([25]; 300 mg/kg (i.p.)): 6/6; MIC ([26]; PCI602, 18 h): 0.012 µg/mL; Number of death/Number of animals [27]: 7/10
